# Laboratory results published in ChEMBL document CHEMBL5316353, “Antitarget, Anti-SARS-CoV-2 Leads, Drugs, and the Drug Discovery-Genetics Alliance Perspective” (J Med Chem, 2023).
# pEC50, pIC50, pKi: −log10 of the molar value. Square brackets hold non-standard residues; d marks the D form. Peptide text beside a SMILES is read from it. βAla = NCCC(=O)O
# Tests used:
# SARS-CoV-2 [1] = assay: Antiviral activity against SARS-CoV-2 Omicron assessed as reduction of viral growth; type: functional, organism-based; details: Severe acute respiratory syndrome coronavirus 2, Omicron
# SARS-CoV-2 [2] = assay: Antiviral activity against SARS-CoV-2 Gamma assessed as reduction of viral growth; type: functional, organism-based; details: Severe acute respiratory syndrome coronavirus 2, Gamma
# SARS-CoV-2 [3] = assay: Antiviral activity against SARS-CoV-2 Beta assessed as reduction of viral growth; type: functional, organism-based; details: Severe acute respiratory syndrome coronavirus 2, Beta
# SARS-CoV-2 [4] = assay: Antiviral activity against SARS-CoV-2 Delta assessed as reduction of viral growth; type: functional, organism-based; details: Severe acute respiratory syndrome coronavirus 2, Delta
# [5] = system: Middle East respiratory syndrome-related coronavirus; assay: Antiviral activity against MERS-CoV infected in human Huh-7 cells assessed as reduction of viral growth; type: functional, organism-based
# [6] = Binding affinity to HCoV-NL63 MPro assessed as inhibition constant; set-up: species or system Human coronavirus NL63
# Human coronavirus 229E = assay: microbe, parasite or virus in culture; details: MRC5
# SARS-CoV-2 [7] = assay: microbe, parasite or virus in culture; details: Severe acute respiratory syndrome coronavirus 2
# SARS-CoV [8] = type: functional, organism-based, Vero E6; details: Severe acute respiratory syndrome-related coronavirus, Vero C1008
# SARS-CoV [9] = assay: Antiviral activity against SARS-CoV-1 infected in HAE cells assessed as inhibition of viral replication; type: functional, organism-based; details: Severe acute respiratory syndrome-related coronavirus
# [10] = Cytotoxicity in African green monkey Vero cells by MTT assay; type: toxicity, cell-based; details: chlorocebus sabaeus
# SARS-CoV-2 [11] = type: functional, organism-based; details: Severe acute respiratory syndrome coronavirus 2, Huh-7
# SARS-CoV-2 [12] = type: functional, organism-based; details: Severe acute respiratory syndrome coronavirus 2, HPAEpiC
# SARS-CoV-2 [13] = type: functional, organism-based; details: Severe acute respiratory syndrome coronavirus 2
# [14] = system: Middle East respiratory syndrome-related coronavirus; type: functional, organism-based; details: Calu-3
# [15] = system: Middle East respiratory syndrome-related coronavirus; type: functional, organism-based, Vero E6; details: Vero C1008
structure (smiles),measurement,setting,value
COc1ccc(C(=O)Nc2cccc(C(F)(F)F)c2)cc1Nc1nc(-c2cccnc2)c2[nH]ccc2n1,pEC50,SARS-CoV-2 [1],> 8.16
same,pEC50,SARS-CoV-2 [2],> 8.16
same,pEC50,SARS-CoV-2 [3],7.91
same,pEC50,SARS-CoV-2 [4],> 8.16
CC[C@H](C)[C@H](N)C(=O)N[C@@H](CCC(=O)O)C(=O)N[C@@H](CCC(=O)O)C(=O)N[C@H](C(=O)N[C@@H](CO)C(=O)N[C@@H](CCCCN)C(=O)N[C@@H](CCCCN)C(=O)N[C@H](C(=O)N[C@@H](CCC(=O)O)C(=O)N[C@@H](CCC(=O)O)C(=O)N[C@H](C(=O)N[C@@H](CO)C(=O)N[C@@H](CCCCN)C(=O)N[C@@H](CCCCN)C(=O)N[C@H](C(=O)N[C@@H](CCC(=O)O)C(=O)N[C@@H](CCC(=O)O)C(=O)N[C@H](C(=O)N[C@@H](CO)C(=O)N[C@@H](CCCCN)C(=O)N[C@@H](CCCCN)C(=O)N[C@H](C(=O)N[C@@H](CCC(=O)O)C(=O)N[C@@H](CCC(=O)O)C(=O)N[C@H](C(=O)N[C@@H](CO)C(=O)N[C@@H](CCCCN)C(=O)N[C@@H](CCCCN)C(=O)N[C@H](C(=O)N[C@@H](CCC(=O)O)C(=O)N[C@@H](CCC(=O)O)C(=O)N[C@H](C(=O)N[C@@H](CO)C(=O)N[C@@H](CCCCN)C(=O)N[C@@H](CCCCN)C(=O)NCCC(=O)N[C@@H](CCCCN)C(=O)O)[C@@H](C)CC)[C@@H](C)CC)[C@@H](C)CC)[C@@H](C)CC)[C@@H](C)CC)[C@@H](C)CC)[C@@H](C)CC)[C@@H](C)CC)[C@@H](C)CC (H-IEEISKKIEEISKKIEEISKKIEEISKKIEEISKK[βAla]K-OH),pEC50,[5],7.00
Cc1cc(C(=O)N[C@@H](C)C(=O)N[C@H](C(=O)N[C@@H](CC(C)C)C(=O)N[C@H](/C=C/C(=O)OCc2ccccc2)C[C@@H]2CCNC2=O)C(C)C)no1,pKi,[6],4.95
same,pIC50,Human coronavirus 229E,6.85
CC(C)C[C@H](NC(=O)[C@H](CCC(=O)O)NC(=O)[C@H](CCC(=O)O)NC(=O)[C@H](CC(C)C)NC(=O)[C@H](CCCCN)NC(=O)[C@H](CCCCN)NC(=O)[C@H](CO)NC(=O)[C@H](CC(C)C)NC(=O)[C@H](CCC(=O)O)NC(=O)[C@H](CCC(=O)O)NC(=O)[C@H](CC(C)C)NC(=O)[C@H](CCCCN)NC(=O)[C@H](CCCCN)NC(=O)[C@H](CO)NC(=O)[C@H](CC(C)C)NC(=O)[C@H](CCC(=O)O)NC(=O)[C@H](CCC(=O)O)NC(=O)[C@H](CC(C)C)NC(=O)[C@H](CCCCN)NC(=O)[C@H](CCCCN)NC(=O)[C@H](CO)NC(=O)[C@H](CC(C)C)NC(=O)[C@H](CCC(=O)O)NC(=O)[C@H](CCC(=O)O)NC(=O)[C@H](CC(C)C)NC(=O)[C@H](CCCCN)NC(=O)[C@H](CCCCN)NC(=O)[C@H](CO)NC(=O)[C@H](CC(C)C)NC(=O)[C@H](CCC(=O)O)NC(=O)[C@H](CCC(=O)O)NC(=O)[C@@H](N)CC(C)C)C(=O)N[C@@H](CO)C(=O)N[C@@H](CCCCN)C(=O)N[C@@H](CCCCN)C(=O)NCCC(=O)N[C@@H](CCCCN)C(=O)O (H-LEELSKKLEELSKKLEELSKKLEELSKKLEELSKK[βAla]K-OH),pEC50,[5],6.62
CC(=O)N[C@@H]1[C@H](Oc2c3cc4cc2Oc2ccc(cc2Cl)[C@@H](O[C@@H]2O[C@@H](CO)[C@@H](O)[C@H](O)[C@@H]2NC(C)=O)[C@@H]2NC(=O)[C@H](NC(=O)[C@@H]4NC(=O)[C@H]4NC(=O)[C@@H](Cc5ccc(c(Cl)c5)O3)NC(=O)[C@H](N)c3ccc(O)c(c3)Oc3cc(O)cc4c3)c3ccc(O)c(c3)-c3c(O[C@H]4O[C@H](CO)[C@@H](O)[C@@H](O)[C@@H]4O)cc(O)cc3[C@@H](C(=O)O)NC2=O)O[C@@H](CO)[C@@H](O)[C@@H]1O,pIC50,SARS-CoV-2 [7],5.80
C[C@@H](OC(C)(C)C)[C@H](NC(=O)OCc1ccccc1)C(=O)N[C@@H](CC1CCCCC1)C(=O)N[C@H](C=O)C[C@@H]1CCNC1=O,pIC50,SARS-CoV [8],6.22
same,pIC50,Human coronavirus 229E,6.85
CCC(CC)COC(=O)[C@H](C)NP(=O)(OC[C@@H]1O[C@](C#N)(c2ccc3c(N)ncnn23)[C@@H](O)[C@H]1O)Oc1ccccc1 (stereo partly drawn),pIC50,SARS-CoV [9],7.16
same,CC50,[10],> 100000 nM
"O=C[C@H](C[C@@H]1CCNC1=O)NC(=O)[C@@H]1[C@H]2CCC[C@H]2CN1C(=O)COc1ccc(Cl)cc1Cl (single isomer, unassigned)",pEC50,SARS-CoV-2 [11],7.51
same,pEC50,SARS-CoV-2 [12],8.96
NC1(C(=O)N[C@@H](CCO)c2ccc(Cl)cc2)CCN(c2nc[nH]c3nccc2-3)CC1 [CAPIVASERTIB],pIC50,SARS-CoV-2 [13],5.63
CC[C@H](C)[C@H](NC(=O)[C@H](Cc1ccc(O)cc1)NC(=O)[C@H](CO)NC(=O)[C@H](CCC(=O)O)NC(=O)[C@H](CC(N)=O)NC(=O)[C@H](CC(C)C)NC(=O)[C@H](C)NC(=O)[C@H](CCCCN)NC(=O)[C@@H](NC(=O)[C@@H](NC(=O)[C@H](CCC(N)=O)NC(=O)[C@H](CCC(N)=O)NC(=O)[C@H](CC(C)C)NC(=O)[C@H](CO)NC(=O)[C@H](CCCNC(=N)N)NC(=O)[C@H](CCSC)NC(=O)[C@H](CCC(=O)O)NC(=O)[C@H](Cc1ccc(O)cc1)NC(=O)[C@H](CCC(=O)O)NC(=O)[C@H](CC(C)C)NC(=O)[C@H](CC(=O)O)NC(=O)[C@H](CC(C)C)NC(=O)[C@H](CC(C)C)NC(=O)[C@@H](NC(=O)[C@@H](NC(=O)[C@H](CC(N)=O)NC(=O)[C@@H](NC(=O)[C@H](CCC(N)=O)NC(=O)[C@@H](NC(=O)[C@H](CC(C)C)NC(=O)[C@@H](N)CO)[C@@H](C)O)[C@@H](C)CC)[C@@H](C)O)[C@@H](C)O)C(C)C)C(C)C)C(=O)N[C@@H](CC(=O)O)C(=O)N[C@@H](CC(C)C)C(=O)N[C@@H](CCCCN)C(=O)N[C@@H](CCC(=O)O)C(=O)N[C@@H](CC(C)C)C(=O)O,pIC50,[14],6.26
same,pIC50,[15],6.26
